In assay [1] the target is T1, proMMP9(67-444;ΔFnII) (SEQ ID NO:5) (Homo sapiens, UniProt P14780, DEL216-390).
T1 construct: amino acid pairs including: 29-215/391-444, 67-215/391-444, and 20-215/391-445, respectively; start methionine (N); made in house; host or cells: E. coli BL21(DE3) RIL
T1 sequence (P14780 with tags, fused parts or gaps DEL216-390): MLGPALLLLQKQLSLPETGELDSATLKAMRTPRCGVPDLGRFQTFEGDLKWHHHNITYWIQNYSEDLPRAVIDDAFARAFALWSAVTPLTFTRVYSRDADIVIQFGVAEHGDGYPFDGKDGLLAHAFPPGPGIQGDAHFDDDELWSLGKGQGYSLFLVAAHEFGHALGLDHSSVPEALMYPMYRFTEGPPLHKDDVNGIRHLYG
The assay is described as follows: ThermoFluor binding assay with proMMP9(67-444;ΔFnII). How it is done:
(§1) The experiments were carried out using instruments available from Johnson & Johnson Pharmaceutical Research & Development, LLC. TF dye used in all experiments was […] (1,8-ANS) (Invitrogen: A-47).
(§2) Columns 12 and 24 were used as DMSO reference and contained no compound. […] Following compound dispense, protein and dye solutions were added to achieve the final assay volume of 3 μL.
(§3) Assay plates were robotically loaded onto a thermostatically controlled PCR-type thermal block and then heated from 40 to 90° C. at a ramp-rate of 1° C./min for all experiments. Fluorescence was measured by continuous illumination with UV light (Hamamatsu LC6) supplied via fiber optics and filtered through a band-pass filter (380-400 nm; >6 OD cutoff). Fluorescence emission of the entire 384-well plate was detected by measuring light intensity using a CCD camera (Sensys, Roper Scientific) filtered to detect 500±25 nm, resulting in simultaneous and independent readings of all 384 wells.
(§4) Thermodynamic parameters necessary for fitting compound binding for each proMMP were estimated by differential scanning calorimetry (DSC) and from ThermoFluor® data. The heat capacity of unfolding for each protein was estimated from the molecular weight and from ThermoFluor® dosing data.
The protein sample preparations had to include a desalting buffer exchange step via a PD-10 gravity column (GE Healthcare).
(In general: DSF heats the sample and reads unfolding from a dye or from intrinsic fluorescence.)

Assay [2] addresses T2, proMMP9(20-445;ΔFnII) (SEQ ID NO:6) (Homo sapiens, UniProt P14780, DEL216-390).
T2 construct: amino acid pairs including: 29-215/391-444, 67-215/391-444, and 20-215/391-445, respectively; start methionine (N); made in house; host or cells: E. coli BL21(DE3) RIL
T2 sequence (P14780 with tags, fused parts or gaps DEL216-390): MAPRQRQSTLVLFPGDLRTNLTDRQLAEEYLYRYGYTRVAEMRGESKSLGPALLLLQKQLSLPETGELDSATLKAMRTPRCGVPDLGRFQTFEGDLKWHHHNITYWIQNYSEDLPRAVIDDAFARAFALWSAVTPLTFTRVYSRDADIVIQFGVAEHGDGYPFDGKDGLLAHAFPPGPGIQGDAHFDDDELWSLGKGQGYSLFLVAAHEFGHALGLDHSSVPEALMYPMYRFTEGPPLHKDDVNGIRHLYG
The experiment in a line: ThermoFluor binding assay with proMMP9(20-445;ΔFnII). How it is done:
as §1, §2, §3, §4
The protein sample preparations included a desalting buffer exchange step via a PD-10 gravity column (GE Healthcare).

In assay [3] the target is T3, proMMP13(1-268) (SEQ ID NO:7) (Homo sapiens, UniProt P45452).
T3 construct: 6x-histidine tag (C); made in house; host or cells: HEK293
The experiment in a line: ThermoFluor binding assay with proMMP13(1-268). How it is done:
The ThermoFluor® (TF) assay is a 384-well plate-based binding assay that measures thermal stability of proteins (Biomol Screen 2001, 6, 429-40; Biochemistry 2005, 44, 5258-66). The experiments were carried out using instruments available from Johnson & Johnson Pharmaceutical Research & Development, LLC. TF dye used in all experiments was […] (1,8-ANS) (Invitrogen: A-47).
Compounds were arranged in a pre-dispensed plate (Greiner Bio-one: 781280), wherein compounds were serially diluted in 100% DMSO across 11 columns within a series. Columns 12 and 24 were used as DMSO reference and contained no compound. For multiple compound concentration-response experiments, the compound aliquots ([…]) were robotically predispensed directly into black 384-well polypropylene PCR microplates (Abgene: TF-0384/k) using a Cartesian Hummingbird liquid handler (DigiLab, Holliston, Mass.). Following compound dispense, protein and dye solutions were added to achieve the final assay volume of 3 μL. The assay solutions were overlayed with 1 μL of silicone oil (Fluka, type DC 200: 85411) to prevent evaporation.
as §3, with “wells. A single image with 20-sec exposure time was collected at each temperature, and the sum of the pixel intensity in a given area of the assay plate was recorded vs temperature and fit to standard equations to yield the Tm (J Biomol Screen 2001, 6, 429-40).” for “wells.”
as §4
The proMMP13(1-268) (SEQ ID NO:7) protein sample preparations included a desalting buffer exchange step via a PD-10 gravity column (GE Healthcare). The desalting buffer exchange was performed prior to diluting the protein to the final assay concentration of 3.5 μM. The concentration of proMMP13(1-268) (SEQ ID NO:7) was estimated spectrophotometrically based on a calculated extinction coefficient of ε280=37000 M^−1 cm^−1, a calculated molecular weight of 30.8 kDa, and calculated pI of 5.33. ThermoFluor® reference conditions were defined as follows: 100 μg/mL proMMP13(1-268) (SEQ ID NO:7), 25 μM 1,8-ANS, pH 7.0 Buffer (50 mM HEPES pH 7.0, 100 mM NaCl, 0.001% Tween-20, 2.5 mM MgCl2, 300 μM CaCl2). The thermodynamic parameters for proMMP13(1-268) (SEQ ID NO:7) are as follows: Tm (° C.)=67 (+/−0.1), ΔUH(Tm) (cal mol^−1)=107000(+/−5000), ΔUS(Tm) (cal mol^−1 K^−1)=318, ΔUCp (cal mol^−1 K^−1)=2600.

Assay [4] deals with full-length proMMP9(1-707) activation by catalytic MMP3 (Homo sapiens, UniProt P14780, R574P). The experiment in a line: ProMMP9/MMP3 DQ Gelatin Activation Assay.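 Further: readout is fluorescence of quenched fluorescein gelatin cut by activated MMP9, 30 min activation at 37 °C, inhibition relative to DMSO-only controls with EDTA as blank.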 Type of assay: biochemical. On the set-up: made in house; host or cells: COS-1 (proMMP9); E. coli (MMP3). As to conditions: proMMP9 from COS-1 cells; read-out: ProMMP9/MMP3 DQ gel, IC50.
full-length proMMP9(1-707) activation by catalytic MMP3, sequence (P14780 20-707 R574P): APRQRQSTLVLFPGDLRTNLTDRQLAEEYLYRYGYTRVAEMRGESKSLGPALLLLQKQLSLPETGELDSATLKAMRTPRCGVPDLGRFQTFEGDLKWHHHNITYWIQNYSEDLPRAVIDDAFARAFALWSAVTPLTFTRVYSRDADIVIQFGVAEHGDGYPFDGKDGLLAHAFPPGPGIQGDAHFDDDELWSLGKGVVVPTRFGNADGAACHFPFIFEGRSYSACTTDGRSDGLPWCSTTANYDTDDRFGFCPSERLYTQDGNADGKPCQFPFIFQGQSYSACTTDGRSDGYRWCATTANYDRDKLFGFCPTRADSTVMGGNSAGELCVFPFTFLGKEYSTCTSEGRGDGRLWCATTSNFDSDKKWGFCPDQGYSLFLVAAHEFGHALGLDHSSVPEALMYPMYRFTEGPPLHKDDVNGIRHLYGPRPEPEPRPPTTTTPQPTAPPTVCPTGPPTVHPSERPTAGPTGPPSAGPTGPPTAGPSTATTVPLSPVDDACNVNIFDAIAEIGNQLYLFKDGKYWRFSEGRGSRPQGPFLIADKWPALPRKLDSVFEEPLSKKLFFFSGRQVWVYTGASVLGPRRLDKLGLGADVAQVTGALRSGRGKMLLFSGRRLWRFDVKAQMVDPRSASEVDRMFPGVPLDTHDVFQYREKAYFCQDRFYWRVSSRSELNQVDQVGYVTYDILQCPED
Protocol: Compounds were assessed for inhibition of proMMP9 activation by catalytic MMP3 using a quenched fluorescein gelatin substrate (DQ gelatin, Invitrogen D12054) that fluoresces upon cleavage by activated MMP9. The assay buffer employed was 50 mM Hepes, pH 7.5, 10 mM CaCl2, 0.05% Brij-35. DMSO was included at a final concentration of 0.2%, arising from the test compound addition. […] Test compounds in DMSO were diluted 250-fold in assay buffer at 4× the final concentration. The reaction volume was 12 μL, and all reactions were conducted in triplicate. […] The plate was sealed and incubated for 30 min at 37° C. […] Immediately following the 30 min incubation, 4 μL of 40 μg/ml DQ gelatin substrate was added (freshly diluted in assay buffer), and incubated for 10 min at room temperature. […] Reactivity of residual MMP3 towards DQ gelatin was minimal under these conditions. Percent inhibition of test compounds were determined from suitable positive (DMSO only in assay buffer) and negative (EDTA added prior to reaction initiation) controls. Plots of % inhibition vs. test compound concentration were fit to a four-parameter logistics equation (GraphPad Prism® software) for determination of IC50.

18 compounds from patent US20120302573A1, “METHODS OF INHIBITING PRO MATRIX METALLOPROTEINASE ACTIVATION” (priority 2011, published 2012) can be followed below.

The term Kd denotes the concentration at which binding is half-saturated.

Where a name gives a salt, the structure may show the parent alone.

As to `COc1c(Cl)cccc1Nc1nc(-c2sc(N)nc2C)cs1` [Example 7, N^2-(3-Chloro-2-methoxy-phenyl)-4′-methyl-[4,5′]bithiazolyl-2,2′-diamine.HBr], the results for the Kd in assay [1], in assay [2] and in assay [3] were 8.84 µM, 12.9 µM and 44.6 µM, respectively.

With `Cc1nc(N)sc1-c1csc(Nc2cccc(C(N)=O)c2)n1` [Example 8, 3-(2′-Amino-4′-methyl-[4,5′]bithiazolyl-2-ylamino)-benzamide.HBr], the Kd in assay [1] stood at 30.2 µM; in assay [2] it was 10.8 µM; in assay [3], 26.9 µM.

Turning to `COc1ccccc1Nc1nc(-c2cnc(N)s2)cs1` [Example 10, N^2-(2-Methoxy-phenyl)-[4,5′]bithiazolyl-2,2′-diamine.HBr], the Kd stood at 3.67 µM in assay [1], 9.61 µM in assay [2] and 55.9 µM in assay [3].

For the compound `CCc1nc(N)sc1-c1nc(Nc2ccccc2OC)sc1C` [Example 11, 4′-Ethyl-N^2-(2-methoxy-phenyl)-5-methyl-[4,5′]bithiazolyl-2,2′-diamine], the Kd in assay [1] is 19.9 µM; in assay [2], over 95 µM; in assay [3] it was 58.9 µM.

Turning to `CCc1nc(N)sc1-c1nc(Nc2cc(Cl)ccc2OC)sc1C` [Example 17, N^2-(5-Chloro-2-methoxy-phenyl)-4′-ethyl-5-methyl-[4,5′]bithiazolyl-2,2′-diamine], the Kd in assay [1] stood at 3.99 µM; in assay [2] it was 15.6 µM; in assay [3] it was 10.7 µM.

As for `COc1ccccc1Nc1nc(-c2sc(N)nc2C(F)(F)F)cs1` [Example 22, N^2-(2-Methoxy-phenyl)-4′-trifluoromethyl-[4,5′]bithiazolyl-2,2′-diamine.TFA], the Kd in assay [1] was determined as 2.32 µM; in assay [2], 12.3 µM; in assay [3], 44.2 µM.

`COc1ccccc1Nc1nc(-c2sc(-c3cnccn3)nc2C)cs1` [Example 26, (2-Methoxy-phenyl)-(4′-methyl-2′-pyrazin-2-yl-[4,5′]bithiazolyl-2-yl)-amine.TFA]: the Kd in assay [1] is over 95 µM; in assay [2], over 95 µM; in assay [3], 4.78 µM. The IC50 in assay [4] came to 13.8 µM.

For the compound `COc1ccc(-c2csc(Nc3ccccc3OC)n2)cn1` [Example 28, (2-Methoxy-phenyl)-[4-(6-methoxy-pyridin-3-yl)-thiazol-2-yl]-amine.TFA], the Kd in assay [1] is 22.6 µM; in assay [2], over 65 µM; in assay [3], over 95 µM. Also, the IC50 in assay [4] worked out at 15.6 µM.

On to `COc1ccccc1Nc1nc(-c2cc(C)ccn2)cs1` [Example 30, (2-Methoxy-phenyl)-[4-(4-methyl-pyridin-2-yl)-thiazol-2-yl]-amine.TFA], for which the Kd was 13.8 µM in assay [1], over 95 µM in assay [2] and 42 µM in assay [3].

For the compound `COc1ccccc1Nc1nc(-c2sc(NC(C)C)nc2C)cs1` [Example 37, N^2′-Isopropyl-N^2-(2-methoxy-phenyl)-4′-methyl-[4,5′]bithiazolyl-2,2′-diamine.HCl], the equilibrium dissociation constant (Kd) was 4.48 µM in assay [1], 5.16 µM in assay [2] and over 95 µM in assay [3]. In assay [4], the IC50 was over 20 µM.

With `COc1ccccc1Nc1nc(-c2ccc(-c3ccccc3)s2)cs1` [Example 43, (2-Methoxy-phenyl)-[4-(5-phenyl-thiophen-2-yl)-thiazol-2-yl]-amine.TFA], the Kd stood at 13.1 µM in assay [1], 76.7 µM in assay [2] and 20.4 µM in assay [3]. In addition, in assay [4], the IC50 was over 20 µM.

As for `COc1ccccc1Nc1nc(-c2oc(C)nc2C)cs1` [Example 44, [4-(2,4-Dimethyl-oxazol-5-yl)-thiazol-2-yl]-(2-methoxy-phenyl)-amine.TFA], the equilibrium dissociation constant (Kd) in assay [1] was 44.7 µM; in assay [2], over 95 µM; in assay [3] it was over 95 µM. Further, in assay [4], the IC50 is 11.9 µM.

`COc1ccccc1Nc1nc(-c2c(C)nc3ccccn23)cs1` [Example 46, (2-Methoxy-phenyl)-[4-(2-methyl-imidazo[1,2-a]pyridin-3-yl)-thiazol-2-yl]-amine]: the Kd in assay [1] came out at 36.7 µM; in assay [2], 65.2 µM; in assay [3], 16 µM. Besides, the IC50 in assay [4] was determined as 8.6 µM.

For the compound `CCOc1ccccc1Nc1nc(-c2sc(NC(=O)CC)nc2C)cs1` [Example 47, N-[2-(2-Ethoxy-phenylamino)-4′-methyl-[4,5′]bithiazolyl-2′-yl]-propionamide], the Kd was 40.9 µM in assay [1], over 90 µM in assay [2] and over 95 µM in assay [3]. The IC50 in assay [4] came out at 5.2 µM.

In the case of `CCOc1ccccc1Nc1nc(-c2c(C)nc3ncccn23)cs1` [Example 52, (2-Ethoxy-phenyl)-[4-(2-methyl-imidazo[1,2-a]pyrimidin-3-yl)-thiazol-2-yl]-amine], the Kd in assay [1] was 9.09 µM; in assay [2] it was 7.27 µM; in assay [3] it was 13.2 µM. The IC50 in assay [4] was determined as 3.3 µM.

In the case of `CCOc1ccccc1Nc1nc(-c2cccnc2)cs1` [Example 53, (2-Ethoxy-phenyl)-(4-pyridin-3-yl-thiazol-2-yl)-amine], the Kd in assay [1] was 15.1 µM; in assay [2], 28.6 µM; in assay [3], over 95 µM. Moreover, the IC50 in assay [4] was 4.7 µM.

For the compound `COc1ccccc1Nc1nc(-c2cccnc2)cs1` [Example 55, (2-Methoxy-phenyl)-(4-pyridin-3-yl-thiazol-2-yl)-amine], the Kd in assay [1] is 22.5 µM; in assay [2], over 95 µM; in assay [3] it was over 95 µM. Moreover, the IC50 in assay [4] was 13 µM.

On to `CCC(=O)Nc1nc(C)c(-c2csc(Nc3ccccc3OC)n2)s1` [Example 58, N-[2-(2-Methoxy-phenylamino)-4′-methyl-[4,5′]bithiazolyl-2′-yl]-propionamide], for which the Kd in assay [1] is 3.01 µM; in assay [2], 13.4 µM; in assay [3] it was over 95 µM. In addition, the IC50 in assay [4] turned out to be 2.6 µM.
